Data from ChEMBL document CHEMBL3400001, “Tricyclic 1,5-naphthyridinone oxabicyclooctane-linked novel bacterial topoisomerase inhibitors as broad-spectrum antibacterial agents-SAR of left-hand-side moiety (Part-2)” (Bioorg Med Chem Lett, 2015).
Values after ≈ are worked out from the molar mass of the structure shown.

Key:
[1] = test system: Staphylococcus aureus; experiment: Ratio of MIC for quinolone-resistant Staphylococcus aureus MS5935 to MIC for quinolone-[…]; type: functional
[2] = test system: Staphylococcus aureus; experiment: Antimicrobial activity against Staphylococcus aureus Smith by micro broth dilution or agar based method; type: functional
[3] = test system: Acinetobacter baumannii; experiment: Antimicrobial activity against Acinetobacter baumannii IID876 by micro broth dilution or agar based method; type: functional
[4] = molecular target: T1, Voltage-gated inwardly rectifying potassium channel KCNH2 (Homo sapiens, UniProt Q12809); experiment: Inhibition of human ERG by MK499 binding assay
T1 sequence (Q12809 whole entry): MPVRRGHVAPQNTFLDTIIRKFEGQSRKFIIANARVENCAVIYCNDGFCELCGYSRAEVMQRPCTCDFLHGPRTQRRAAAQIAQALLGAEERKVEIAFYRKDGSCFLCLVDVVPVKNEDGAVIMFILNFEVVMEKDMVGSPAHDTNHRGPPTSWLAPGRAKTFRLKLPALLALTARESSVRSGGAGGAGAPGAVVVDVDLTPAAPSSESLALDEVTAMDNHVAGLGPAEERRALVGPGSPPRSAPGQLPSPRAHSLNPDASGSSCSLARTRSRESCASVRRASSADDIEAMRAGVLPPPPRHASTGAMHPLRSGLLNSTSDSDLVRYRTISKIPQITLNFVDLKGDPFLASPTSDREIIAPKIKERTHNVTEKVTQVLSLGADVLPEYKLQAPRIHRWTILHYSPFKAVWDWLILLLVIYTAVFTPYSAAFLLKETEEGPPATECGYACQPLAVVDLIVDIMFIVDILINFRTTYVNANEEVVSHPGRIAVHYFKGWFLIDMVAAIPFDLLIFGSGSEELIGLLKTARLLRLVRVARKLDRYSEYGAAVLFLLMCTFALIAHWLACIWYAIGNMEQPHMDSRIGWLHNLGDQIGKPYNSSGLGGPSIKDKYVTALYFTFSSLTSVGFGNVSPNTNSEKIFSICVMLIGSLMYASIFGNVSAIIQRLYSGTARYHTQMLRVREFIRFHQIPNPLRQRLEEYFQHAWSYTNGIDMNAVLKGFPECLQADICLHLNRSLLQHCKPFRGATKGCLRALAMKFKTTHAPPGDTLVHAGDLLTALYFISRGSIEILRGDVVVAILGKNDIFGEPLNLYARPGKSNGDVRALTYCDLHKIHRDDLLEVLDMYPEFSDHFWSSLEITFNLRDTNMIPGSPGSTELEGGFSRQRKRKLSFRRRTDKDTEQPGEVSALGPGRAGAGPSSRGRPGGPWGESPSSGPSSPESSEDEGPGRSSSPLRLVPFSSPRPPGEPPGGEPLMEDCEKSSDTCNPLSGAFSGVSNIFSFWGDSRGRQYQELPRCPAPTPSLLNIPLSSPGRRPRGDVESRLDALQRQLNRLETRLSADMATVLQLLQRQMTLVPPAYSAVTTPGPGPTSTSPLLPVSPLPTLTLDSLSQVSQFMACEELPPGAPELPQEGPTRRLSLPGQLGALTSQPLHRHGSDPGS

[5] = test system: Escherichia coli; experiment: Antimicrobial activity against Escherichia coli ATCC 25922 by micro broth dilution or agar based method; type: functional
[6] = test system: Enterococcus faecium; experiment: Antimicrobial activity against vancomycin-resistant Enterococcus faecium A2373 expressing VanA by micro broth dilution or agar based method; type: functional
[7] = test system: Enterococcus faecalis; experiment: Antimicrobial activity against Enterococcus faecalis ATCC 29212 MB by micro broth dilution or agar based method; type: functional
[8] = test system: Streptococcus pneumoniae; experiment: Antimicrobial activity against Streptococcus pneumoniae IID554 by micro broth dilution or agar based method; type: functional
[9] = test system: Pseudomonas aeruginosa; experiment: Antimicrobial activity against Pseudomonas aeruginosa PAO1 by micro broth dilution or agar based method; type: functional
[10] = test system: Haemophilus influenzae; experiment: Antimicrobial activity against Haemophilus influenzae ATCC 49247 by micro broth dilution or agar based method; type: functional
[11] = test system: Moraxella catarrhalis; experiment: Antimicrobial activity against Moraxella catarrhalis ATCC 25238 by micro broth dilution or agar based method; type: functional
[12] = Plasma clearance in C57BL/6 mouse at 1 mg/kg, iv or 2 mg/kg, po; type: ADME, organism-based
[13] = AUC in C57BL/6 mouse at 1 mg/kg, iv; type: ADME, organism-based; parameters: dose 1 mg/kg, route intravenous; conditions: plasma
[14] = Half life in C57BL/6 mouse at 1 mg/kg, iv or 2 mg/kg, po; type: ADME, organism-based; conditions: in vivo
[15] = Volume of distribution at steady state in C57BL/6 mouse at 1 mg/kg, iv or 2 mg/kg, po; type: ADME, organism-based; conditions: in vivo, read-out: Vdss
[16] = test system: Staphylococcus aureus; experiment: Antimicrobial activity against Staphylococcus aureus infected in orally dosed mouse model of bacteremia; type: functional; conditions: po
[17] = test system: Staphylococcus aureus; experiment: Antimicrobial activity against Staphylococcus aureus infected in intravenously dosed mouse model of bacteremia; type: functional; conditions: iv
[18] = Oral bioavailability in C57BL/6 mouse at 2 mg/kg; type: ADME, organism-based; conditions: in vivo
[19] = molecular target: T1, Voltage-gated inwardly rectifying potassium channel KCNH2; experiment: Inhibition of human ERG expressed in CHO cells by Patch express assay; type: cell-based
[20] = Staphylococcus aureus, Smith, read-out: MIC
[21] = Acinetobacter baumannii, IID876, read-out: MIC
[22] = Escherichia coli, ATCC 25922, read-out: MIC
[23] = Enterococcus faecium, A2373, read-out: MIC
[24] = Enterococcus faecalis, ATCC 29212 MB, read-out: MIC
[25] = Streptococcus pneumoniae, IID554, read-out: MIC
[26] = Pseudomonas aeruginosa, PAO1, read-out: MIC

SMILES	Ratio [1]	MIC [2, 20] [µg/mL]	MIC [3, 21] [µg/mL]	IC50 [4] [µM]	MIC [5, 22] [µg/mL]	MIC [6, 23] [µg/mL]	MIC [7, 24] [µg/mL]	MIC [8, 25] [µg/mL]	MIC [9, 26] [µg/mL]	MIC [11] [µg/mL]	other results
CO[C@]1(CC23CCC(NCc4ccc5c(n4)NC(=O)CO5)(CC2)CO3)Cn2c(=O)ccc3ncc(F)c1c32	<4	8 (≈ 15.3 µM)	32 (≈ 61.4 µM)	24.5	32 (≈ 61.4 µM)	32 (≈ 61.4 µM)	32 (≈ 61.4 µM)	32 (≈ 61.4 µM)	32 (≈ 61.4 µM)	–	–
COc1cnc2ccc(=O)n3c2c1[C@@](O)(CC12CCC(NCc4ccc5c(n4)NC(=O)CO5)(CC1)CO2)C3	–	8 (≈ 15.4 µM)	32 (≈ 61.6 µM)	–	32 (≈ 61.6 µM)	32 (≈ 61.6 µM)	32 (≈ 61.6 µM)	32 (≈ 61.6 µM)	32 (≈ 61.6 µM)	–	–
O=C1COc2ccc(CNC34CCC(CC5(O)Cn6c(=O)cc(Cl)c7ncc(F)c5c76)(CC3)OC4)nc2N1 (racemic)	<4	2 (≈ 3.69 µM)	8 (≈ 14.8 µM)	> 60	8 (≈ 14.8 µM)	32 (≈ 59 µM)	8 (≈ 14.8 µM)	2 (≈ 3.69 µM)	32 (≈ 59 µM)	1 (≈ 1.85 µM)	MIC [10]: 8 µg/mL (≈ 14.8 µM)
O=C1COc2ccc(CNC34CCC(C[C@]5(O)Cn6c(=O)ccc7nc(Cl)c(F)c5c76)(CC3)OC4)nc2N1	–	4 (≈ 7.38 µM)	32 (≈ 59 µM)	–	32 (≈ 59 µM)	32 (≈ 59 µM)	16 (≈ 29.5 µM)	8 (≈ 14.8 µM)	32 (≈ 59 µM)	4 (≈ 7.38 µM)	–
O=C1COc2ccc(CNC34CCC(C[C@]5(O)Cn6c(=O)ccc7ncc(Cl)c5c76)(CC3)OC4)nc2N1	<4	0.5 (≈ 0.954 µM)	8 (≈ 15.3 µM)	53.3	8 (≈ 15.3 µM)	8 (≈ 15.3 µM)	4 (≈ 7.63 µM)	1 (≈ 1.91 µM)	32 (≈ 61.1 µM)	–	–
COc1cnc2ccc(=O)n3c2c1[C@](O)(CC12CCC(NCc4ccc5c(n4)NC(=O)CO5)(CC1)CO2)C3	–	8 (≈ 15.4 µM)	32 (≈ 61.6 µM)	–	32 (≈ 61.6 µM)	32 (≈ 61.6 µM)	32 (≈ 61.6 µM)	8 (≈ 15.4 µM)	32 (≈ 61.6 µM)	–	–
O=C1COc2ccc(CNC34CCC(C[C@]5(O)Cn6c(=O)ccc7ncc(F)c5c76)(CC3)OC4)nc2N1	–	0.25 (≈ 0.493 µM)	2 (≈ 3.94 µM)	–	4 (≈ 7.88 µM)	8 (≈ 15.8 µM)	4 (≈ 7.88 µM)	0.25 (≈ 0.493 µM)	16 (≈ 31.5 µM)	0.25 (≈ 0.493 µM)	MIC [10]: 1 µg/mL (≈ 1.97 µM); clearance [12]: 65 mL/min/kg; AUC [13]: 0.45 µM·h; half-life [14]: 4 h; Vd [15]: 11.8 L/kg; ED50 [16]: 27 mg/kg; ED50 [17]: < 3.2 mg/kg; bioavailability [18]: 40%
COc1ccc2ncc(F)c(C[C@H](O)C34CCC(NCc5ccc6c(n5)NC(=O)CO6)(CC3)CO4)c2n1	–	0.02 (≈ 0.0393 µM)	0.5 (≈ 0.981 µM)	–	2 (≈ 3.93 µM)	0.5 (≈ 0.981 µM)	0.5 (≈ 0.981 µM)	0.05 (≈ 0.0981 µM)	8 (≈ 15.7 µM)	0.015 (≈ 0.0294 µM)	MIC [10]: 0.5 µg/mL (≈ 0.981 µM)
O=C1COc2ccc(CNC34CCC(CC5Cn6c(=O)ccc7ncc(F)c5c76)(CC3)OC4)nc2N1 (racemic)	–	–	–	23	–	–	–	0.25 (≈ 0.509 µM)	–	–	MIC [2]: 0.12 µg/mL (≈ 0.244 µM); IC50 [19]: 30 µM; MIC [5]: 1 µg/mL (≈ 2.03 µM); MIC [9]: 8 µg/mL (≈ 16.3 µM)
O=C1COc2ccc(CNC34CCC(C[C@@]5(O)CN6C(=O)CCc7ncc(F)c5c76)(CC3)OC4)nc2N1	<4	8 (≈ 15.7 µM)	32 (≈ 62.8 µM)	> 60	32 (≈ 62.8 µM)	32 (≈ 62.8 µM)	32 (≈ 62.8 µM)	32 (≈ 62.8 µM)	32 (≈ 62.8 µM)	–	–
O=C1COc2ccc(CNC34CCC(CC5Cn6c(=O)ccc7ncc(F)c5c76)(CC3)OC4)nc2N1 (stereo in doubt; 9)	<4	–	–	15.2	1 (≈ 2.03 µM)	–	–	–	16 (≈ 32.6 µM)	–	IC50 [19]: 15.8 µM; MIC [3]: 0.5 µg/mL (≈ 1.02 µM); MIC [6]: 1 µg/mL (≈ 2.03 µM); MIC [7]: 0.5 µg/mL (≈ 1.02 µM); MIC [8]: 0.25 µg/mL (≈ 0.509 µM)
